Assays:
[1] = Backbone cleavage on expression from CHO cells (reducing SDS-PAGE, Western blot)
Experimental: The amino acid backbone of IGF2 is cleaved when expressed from Chinese Hamster Ovary (CHO) cells (FIG. 13A) as visualized on a reducing SDS-PAGE and Western blot (FIG. 13B). The CHO cells were grown in a 37° C. incubator with a humidified atmosphere of 8% CO2 on an orbital shaker platform with a shaking speed 125 rpm to reach 4E6 cells/mL, followed by transferring the calculated volume of cells to fresh, pre-warmed ExpiCHO™ Expression Medium in a shake flask. Incubated flasks in a 37° C. incubator with a humidified atmosphere of 8% CO2 shook on an orbital shaker platform until cultures reached a density of 4×106-6×10^6 viable cells/mL. After mixing each plasmid with 100 ul SFM in a microtube; ExpiFectamine (8 ul×10.5=84 ul) with OptiPro medium (92 ul×10.5=966 ul) in a microtube; adding 100 ul into the plasmid tube and mix by pipetting; After 5 min, add 200 ul into each well and swirl to mix. mix enhancer (15×10.2=153 ul) with feed (600×10.2=6.12 ml), add 615 ul into each well. Culture supernatant collected at intervals was spun down at low speed and high speed, then frozen at −80 deg. Aliquots were analyzed for protein concentration by nanodrop, and then an equivalent amount loaded onto 4-12% SDS-PAGE gels for molecular weight distribution analysis. […]

[2] = test system: 10 week old dystrophic mice (mdx); assay: D2-mdx Duchenne's muscular dystrophy model, 10 week old mice; type: in vivo; settings: 150 ug/kg with 1.2 g/kg sodium butyrate subcutaneously every 24 hours, 14 days
Experimental: Between 3-6 weeks old, the skeletal muscle of mdx mice undergoes severe necrosis followed by an increase in the activation of satellite cells to promote muscle regeneration. Treatment with IGF2 fusion polypeptide described herein can improve the regeneration process and therefore muscle health. Mice were fed ad libitum and housed under controlled conditions of lighting (12-hour light/12-hour dark) and temperature (22-24° C.). Mice were allowed to acclimate for 3 days prior to the initiation of the experiment. During the acclimation period, the weight, forelimb and both limb grip strength as well as in vivo tetanic force were assessed to determine the baseline strength of each mouse. 10 week old dystrophic mice (mdx) were injected with the IGF2 fusion polypeptide with sodium butyrate subcutaneously for 14 days. At day 7, forelimb and both grip strength are measured as described in Example 4. BrdU was injected on days 12, 13 and 14. On days 13, 14 and 15, forelimb and both limb grip strength and in vivo tetanic force were tested, and an endurance test to determine max distance and max speed was performed using methods described in Example 4.
Mice were euthanized. The right tibialis anterior and gastrocnemius were collected, immersed in Tissue-TEK OCT and then flash frozen in a chilled isopentane bath precooled in liquid nitrogen and stored at −80° C. Tissue was sectioned and stained for Laminin to determine the cross sectional area (CSA) of muscle fibers, for eMyHC to measure new fiber formation and for BrdU to assess the proliferation rate. The left anterior tibialis and gastrocnemius were collected and flash frozen in liquid nitrogen for molecular analysis that include qPCR and western blot.

Aged human myoblasts = assay: Myogenic transcription factor expression in aged human myoblasts; type: cell-based; settings: compared to fusion media
Experimental: RNA was isolated from each well (RNeasy Mini Kit, Qiagen) and cDNA was obtained by reverse-transcription (High Capacity Reverse Transcription Kit, Thermo Fisher Scientific). Real-time quantitative PCR was performed using QuantStudio3 (Thermo Fisher).
Aged human myoblasts were cultured in well plates. […] Cells that had been cultured with IGF2 had increases in levels of MYOG at 48 hours and levels of MYOD at 72 hours.

DM1 human myoblast cells = assay: Proliferation (EdU) of DM1 human myoblast; type: cell-based; settings: 72 h for proliferation
Experimental: FIG. 7A Bar graph of % EdU+ human myoblast (person) and FIG. 7B % area MyHC in response to IGF2. Myoblast were cultured 72 h for proliferation and 96 h for fusion in the presence of indicated factor. Mean∓S.D. Mean∓SD. Significant p-values (EdU: Vehicle˜IGF2: 6.8E-3, % eMyHC Area: Vehicle˜IGF2: 1.9E-4) (*p<0.05 by Students Two-Tailed T-test, n=3−6).
IGF2 was tested individually for its ability to promote proliferation and/or fusion of human muscle progenitor cells from an individual with myotonic dystrophy type 1 (hMD)—a muscular dystrophy caused by mutations in the DMPK1 gene. […] After 72 or 96 hours, cells were pulsed for 2-5 hours with EdU (30 uM), ethanol fixed, stained with Hoescht 3342, immunostained for proliferation—as measured by the percent of cells staining positive for EdU (% EdU)-, and immunostained for differentiation—as measured by the increase in cellular area staining positive for embryonic myosin heavy chain (% eMyHC) relative to the negative controls, which received media and vehicle only. Wells were imaged on a Keyence BZ-100 at 4×, the images quantified in Cell Profiler, and the statistics were computed in R. Additionally, RNA was extracted from myoblast and select transcript abundances quantified by qPCR. […]

**Q.** With “IGF2: Human IGF2 polypeptide, amino acids 25 to 91 of SEQ ID NO. 32 (i.e. SEQ ID NO. 29)” as the substance, how does the “cleavage of the amino acid backbone when expressed from CHO cells” value [1] read?
**A.** The value was “cleaved”.

**Q.** And the bothlimb grip strength [2]?
**A.** The bothlimb grip strength was “effective at improving”.

**Q.** And the forelimb grip strength [2]?
**A.** Its forelimb grip strength is “effective at improving”.

**Q.** And the muscle weight [2]?
**A.** Its muscle weight is “effective at improving”.

**Q.** What about the total work [2] of the same substance?
**A.** The total work was “effective at improving”.

**Q.** What about the treadmill running distance [2] of the same substance?
**A.** Its treadmill running distance is “effective at improving”.

**Q.** What about the “treadmill running time to exhaustion” value [2] of the same substance?
**A.** The value was “effective at improving”.

**Q.** And the “MYF5 −48 h, fold change” value (Aged human myoblasts; 48 h)?
**A.** The value was 0.409.

**Q.** And the “MYOD1 −48 h, fold change” value (Aged human myoblasts; 48 h)?
**A.** Its value is 0.519.

**Q.** And the “MYF5 −72h, fold change” value (Aged human myoblasts; 72 h)?
**A.** Its value is 0.708.

**Q.** What about the “MYOG −72 h, fold change” value (Aged human myoblasts; 72 h) of the same substance?
**A.** The value was 0.018.

**Q.** And the “EdU FC” value (DM1 human myoblast cells)?
**A.** The value was 2.18.
